Experiments:
subjects with diabetes = assay: Example 1/2: multicenter double-blind placebo-controlled 96 week trial, seated office blood pressure and blood-pressure TEAEs; format: in vivo, human
Procedure: In a multicenter double-blind placebo-controlled trial, subjects with diabetes were administered Compound 1, 20 mg per day or placebo for 96 weeks. The blood pressure of resting seated subjects was measured at every office visit. Although the study population was not specifically recruited to contain participants with hypertension, a fraction of the population was affected by the disease and the mean baseline systolic blood pressure of the entire study population was 127 mm Hg. The effects of Compound 1 and placebo on systolic and diastolic blood pressure as a function of time are shown in FIG. 5 (systolic) and FIG. 6 (diastolic).
A treatment emergent adverse event (TEAE) is an adverse event that develops during or immediately following the period of exposure to the investigational product in a clinical trial. An adverse event is any event that represents an unfavorable change in the health of the individual that is clinically significant—it may represent a new condition or status or materially worsened pre-existing condition. In the clinical trial of Example 1, hypertension was recorded as a TEAE in 2 subjects that had been administered Compound 1 and in 5 subjects administered placebo. […] One episode of hypotension was observed among subjects administered Compound 1 and none among subjects administered placebo. The lower incidence of hypertensive TEAEs and the single episode of hypotension are consistent with the antihypertensive effect of Compound 1. In addition, the observation of only a single episode of hypotension is notable because the mean systolic blood pressure at baseline was only 127 mm Hg, well below the 140 mm Hg level that demarks a widely adopted standard for the diagnosis of hypertension.

[1] = system: spontaneously hypertensive rat, stroke prone strain (SHRSP); details: previously reported (Zhang 2011); cited from earlier work
[2] = system: subjects with seated office systolic blood pressure of ≥140 mm Hg and <180 mm Hg; assay: Study THR-1442-C-603A: double-blind placebo-controlled 12 week trial in a hypertensive population not pre-selected for diabetes; format: in vivo, human
Procedure: A qualified ABPM record contained no fewer than 64 measurements over an approximately 24 h period and a mean SBP≥135 mm Hg.
A total of 678 subjects were randomly assigned to the active arm or to the placebo arm.
The study was conducted in the United States at multiple clinical sites. The randomized population consisted of 409 male and 269 female participants with a mean age ±standard deviation of 58.5±11.74. […] 64.7% were self-declared Caucasian, 29.9% African-American, 1.6% Asian, 0.3% Native American/Native Alaskan, 0.1% Native Hawaiian/Other Pacific Islander, 1.0% Multiracial and 2.2% Other. 8.1% self-declared Hispanic or Latino ethnicity. The study population was obese, having a median body mass index (kg m^−2) of 31.9 and a mean weight of 98.3±35.0 kg. A history of diagnosed diabetes was elicited from 24.3% of the subjects and 18.0% were presently unmedicated for hypertension.
The baseline 24 h average SBP from ABPM was 147.3±9.93 and the DBP was 84.5±9.65. 11.7% of the subjects produced a baseline ABPM SBP≥160 mm Hg.
Following self-administration of investigational product for 12 weeks, subjects underwent ABPM to assess the potential treatment effect. After the first 300 subjects had completed 12 weeks of participation, the mean SBP was 140.90, corresponding to a decrease from baseline in the entire population of 6.4 mm Hg.
A total of 678 subjects were randomized, of whom 5 were excluded for major protocol violations. Of the remaining 673 participants, 307 out of 334 in the bexagliflozin arm and 319 out of 339 in the placebo arm completed the study. The arms were well-balanced in general by demographic characteristics. The population was predominantly male (60.5%) and Caucasian (65.2%) with the remainder by race predominantly of African heritage (29.4%). Participants of Latino ethnicity comprised 8.0% of the total. The mean age was 58.9 years and 24.8% were diabetic. The mean subject was obese with a BMI of 32.6 kg/m^2, and 81% reported at least one prescription for anti-hypertensive medication. ACE inhibitors and ARBs were the most commonly encountered agents. Calcium channel blockers, diuretics and β-blockers were the next most commonly encountered, in that order. The mean seated office blood pressure was 156/91 with a heart rate of 73. The mean ABPM at baseline was 147.5/85.0. Nearly all participants had preserved renal function.

[3] = subjects with systolic blood pressure of 140 mm Hg or above at study entry, 20 mg per day, persisted for duration of trial

Structure (SMILES): OC[C@H]1O[C@@H](c2ccc(Cl)c(Cc3ccc(OCCOC4CC4)cc3)c2)[C@H](O)[C@@H](O)[C@@H]1O [Compound 1, (2S,3R,4R,5S,6R)-2-(4-chloro-3-(4-(2-cyclopropoxyethoxy)benzyl)phenyl)-6-(hydroxymethyl)tetrahydro-2H-pyran-3,4,5-triol]
- episodes of hypotension (subjects with diabetes; 20 mg per day, 96 weeks): One
- hypertension recorded as a TEAE (subjects with diabetes; 20 mg per day, 96 weeks): 2 subjects
- hypertensive crisis (subjects with diabetes; 20 mg per day, 96 weeks): 0 subjects
- propensity for producing deleterious reductions in blood pressure (subjects with diabetes; mean systolic blood pressure at baseline 127 mm Hg): favorably low propensity
- reduction in diastolic blood pressure (subjects with diabetes; [3]): approximately 7 mm Hg
- reduction in systolic blood pressure (subjects with diabetes; [3]): approximately 12 mm Hg
- effect in SHRSP rat [1]: protective effects
- proportion of subjects achieving a seated office DBP≤90 mm Hg ([2]; 20 mg tablets, 12 weeks): 0.65
- proportion of subjects achieving a seated office SBP≤140 mm Hg ([2]; 20 mg tablets, 12 weeks): 0.38
- placebo-adjusted change in seated office SBP from baseline ([2]; 20 mg tablets, 12 weeks, 95% confidence interval −6.83, −2.42, p<0.0001): −4.63 mm Hg
- placebo-adjusted change in seated office DBP from baseline ([2]; 20 mg tablets, week 12, 95% CI −3.70, −0.91, p=0.0011): −2.31 mm Hg
- anti-hypertensive effect over the 24 h ABPM data collection period (hourly change in blood pressure) ([2]; ABPM): did not show significant waning
- placebo-adjusted reduction in ambulatory mean SBP from baseline to week 12 ([2]; ABPM, p=0.0025): 2.72 mm Hg
- adverse events by percentage among participants ([2]; active arm, 12 weeks): 41.9%
- adverse events leading to subject withdrawal or treatment discontinuation ([2]; active arm, 12 weeks): 1.8%
- serious adverse events ([2]; active versus placebo arm): balanced between the arms
- treatment effect by ABPM SBP measurement ([2]; subgroup: concomitant diuretic use, p=0.0021): −5.60 mm Hg
- treatment effect by ABPM SBP measurement ([2]; subgroup: concomitant β-blocker use, p=0.0012): −6.26 mm Hg
- treatment effect by ABPM SBP measurement ([2]; subgroup: history of diabetes, p=0.0023): −6.07 mm Hg
- treatment effect by ABPM SBP measurement ([2]; subgroup: participants with stage 3 CKD, p=0.0571): −7.53 mm Hg
- treatment effect by ABPM SBP measurement ([2]; subgroup: use of 3 or more anti-hypertensive medications, p=0.0071): −5.55 mm Hg
- odds ratio for achieving seated office DBP≤90 mm Hg ([2]; versus placebo arm, 95% CI 1.13, 2.35, p=0.0094): 1.63
- odds ratio for achieving seated office SBP≤140 mm Hg ([2]; versus placebo arm, 95% CI 1.32, 2.62, p=0.0004): 1.86
